Measured values as given in ChEMBL document CHEMBL1201862, “PubChem BioAssay data set” (2004).
Calls of active or inactive are those of the source.

Experiments:
[1] = THP-1 cell cytotoxicity, dose response, cytotoxicity control for Vif-APOBEC3G degradation inhibitor project, THP-1 cells (AID 1117359); format: functional; details: Human immunodeficiency virus 1, THP-1
[2] = system: Vero; assay: Vero cell cytotoxicity, cytotoxicity control for flavivirus capping enzyme inhibitors (AID 588742); format: functional; details: Chlorocebus sabaeus
[3] = target: T1, Bcl-2-like protein 10 (Homo sapiens, UniProt Q9HD36); assay: Biochemical TR3 FP assay of Bcl-B inhibitor potency, EC50 (AID 1243); format: functional
T1 sequence (Q9HD36 whole entry): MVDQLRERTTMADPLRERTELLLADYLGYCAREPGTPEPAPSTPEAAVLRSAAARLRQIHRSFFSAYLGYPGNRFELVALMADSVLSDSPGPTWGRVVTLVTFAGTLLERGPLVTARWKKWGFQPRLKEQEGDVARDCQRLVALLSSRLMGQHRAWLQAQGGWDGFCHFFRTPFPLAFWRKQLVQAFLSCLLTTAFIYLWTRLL

[4] = cells; format: functional, cell-based
[5] = inhibitors of Vif binding to APOBEC3G peptide, primary screen, biochemical, TR-FRET, GST-Vif 1-94, biotin-A3G peptide, dose response retest (AID 1117319); format: functional;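 note: TR-FRET signal of purified GST-Vif binding a biotinylated A3G peptide; inhibitors lower the FRET signal by blocking Vif and A3G binding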
[6] = target: Protein Tat (Human immunodeficiency virus type 1 group M subtype B (isolate HXB2)(HIV-1), UniProt P04608); format: functional;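 note: tat binding to TAR RNA read out by fluorescence polarization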
Sequence of Protein Tat (P04608 whole entry): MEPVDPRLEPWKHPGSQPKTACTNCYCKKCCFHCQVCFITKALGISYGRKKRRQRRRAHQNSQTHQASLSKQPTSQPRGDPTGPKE

[7] = cells; format: functional, cell-based; remark: listed apart in the source
[8] = target: T2, Neuropeptide Y receptor type 1 (Homo sapiens, UniProt P25929); format: functional;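 note: HEK293 cells with a CNG channel challenged with NPY then isoproterenol; potency as antagonist that reverses NPY suppression of cAMP signal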
T2 sequence (P25929 whole entry): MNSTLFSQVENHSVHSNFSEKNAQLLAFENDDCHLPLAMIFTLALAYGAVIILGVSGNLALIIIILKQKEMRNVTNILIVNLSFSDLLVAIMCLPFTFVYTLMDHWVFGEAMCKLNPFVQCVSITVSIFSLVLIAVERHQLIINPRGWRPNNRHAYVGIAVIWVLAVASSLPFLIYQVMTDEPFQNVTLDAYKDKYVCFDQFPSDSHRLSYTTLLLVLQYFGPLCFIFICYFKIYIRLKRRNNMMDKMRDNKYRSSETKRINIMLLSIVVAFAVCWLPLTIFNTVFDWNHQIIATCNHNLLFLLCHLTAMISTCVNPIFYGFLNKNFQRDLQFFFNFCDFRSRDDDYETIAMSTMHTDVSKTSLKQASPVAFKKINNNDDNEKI

[9] = target: T3, Neuropeptide Y receptor type 2 (Homo sapiens, UniProt P49146); format: functional, cell-based;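 note: HEK293 cells expressing the receptor and a CNG channel; stimulus was NPY near EC95 followed by isoproterenol to raise cAMP; antagonist potency measured as restoring cAMP signal that NPY suppresses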
T3 sequence (P49146 whole entry): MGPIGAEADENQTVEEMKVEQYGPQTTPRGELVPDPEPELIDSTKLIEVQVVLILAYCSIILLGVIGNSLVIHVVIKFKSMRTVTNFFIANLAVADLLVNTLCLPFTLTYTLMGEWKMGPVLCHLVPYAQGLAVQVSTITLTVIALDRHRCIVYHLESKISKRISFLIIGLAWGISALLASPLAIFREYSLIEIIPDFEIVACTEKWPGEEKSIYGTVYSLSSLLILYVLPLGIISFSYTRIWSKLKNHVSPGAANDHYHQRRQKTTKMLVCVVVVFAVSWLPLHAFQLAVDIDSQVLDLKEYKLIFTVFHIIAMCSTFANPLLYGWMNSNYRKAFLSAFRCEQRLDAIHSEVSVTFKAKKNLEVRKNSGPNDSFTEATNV

[10] = target: T2, Neuropeptide Y receptor type 1; assay: NPY-Y1 receptor antagonist potency, dose response, cell-based (AID 1277); format: functional
[11] = cells; format: functional, cell-based; details: HEK-CNG
[12] = target: T3, Neuropeptide Y receptor type 2; assay: NPY-Y2 antagonist potency, selectivity check, dose response, counter-screen for NPY-Y1 antagonist project, cell-based (AID 1278); format: functional
[13] = system: INS1; assay: beta cell apoptosis inhibitors, cytokine rescue, dose response, luminescence, retest (AID 449756); format: functional, cell-based;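 note: cell death triggered by IL-1 beta plus TNF-alpha plus IFN-gamma mixture; protective hits raise ATP signal compared with cytokine alone wells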
[14] = cytotoxicity in MIN6 insulinoma cells, dose response, cytotoxicity control, cell-based, mouse insulinoma (AID 2122); format: functional;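 note: confirmatory high-throughput counterscreen run to flag cytotoxic compounds; mouse MIN-6 beta cells carrying an insulin promoter eGFP reporter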
[15] = target: T4, Galanin receptor type 3 (Homo sapiens, UniProt O60755); assay: Fluorescence-based cell-based primary high throughput dose response assay to identify antagonists of the Galanin Receptor 3 (GalR3).; format: functional
T4 sequence (O60755 whole entry): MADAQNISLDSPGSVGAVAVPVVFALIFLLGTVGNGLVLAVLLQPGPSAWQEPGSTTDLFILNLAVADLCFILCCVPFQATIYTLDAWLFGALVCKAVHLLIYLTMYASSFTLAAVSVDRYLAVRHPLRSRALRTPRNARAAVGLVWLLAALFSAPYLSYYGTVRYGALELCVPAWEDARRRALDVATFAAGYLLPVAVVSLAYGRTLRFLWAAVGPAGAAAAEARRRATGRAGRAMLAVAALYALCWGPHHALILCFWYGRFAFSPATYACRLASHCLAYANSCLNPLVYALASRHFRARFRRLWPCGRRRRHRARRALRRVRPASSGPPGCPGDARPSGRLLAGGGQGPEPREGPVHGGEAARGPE

[16] = insulin promoter down-regulators in MIN6 cells, imaging, high-content screening, mouse beta cells (AID 1628); format: functional
[17] = target: Protein Wnt-3a (Mus musculus, UniProt P27467); assay: Wnt3a-driven reporter signaling inhibition, dose response, selectivity assay for Gli-SUFU antagonist project, Wnt-LIGHT cells, luminescence (AID 651570); format: functional; details: read-out: IC50_Mean;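 note: Wnt-LIGHT reporter cells stimulated with conditioned medium from Wnt3a-producing cells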
Sequence of Protein Wnt-3a (P27467 whole entry): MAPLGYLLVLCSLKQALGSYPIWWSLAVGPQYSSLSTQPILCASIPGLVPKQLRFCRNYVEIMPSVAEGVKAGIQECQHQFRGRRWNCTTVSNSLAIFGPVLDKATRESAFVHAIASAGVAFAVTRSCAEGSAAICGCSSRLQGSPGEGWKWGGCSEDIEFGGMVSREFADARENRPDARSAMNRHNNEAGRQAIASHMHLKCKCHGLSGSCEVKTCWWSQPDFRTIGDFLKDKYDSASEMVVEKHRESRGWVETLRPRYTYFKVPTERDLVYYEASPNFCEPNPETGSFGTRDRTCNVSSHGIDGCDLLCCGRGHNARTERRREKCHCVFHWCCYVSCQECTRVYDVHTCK

[18] = target: T5, COUP transcription factor 2 (Homo sapiens, UniProt P24468); assay: Luminescence-based cell-based high throughput dose response assay to identify inhibitors of COUP-TFII (NR2F2).; format: functional;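 note: HEK293 cells transiently cotransfected with COUP-TFII expression vector and reporter; luciferase reporter luminescence driven by COUP-TFII from the pX2-168 reporter plasmid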
T5 sequence (P24468 whole entry): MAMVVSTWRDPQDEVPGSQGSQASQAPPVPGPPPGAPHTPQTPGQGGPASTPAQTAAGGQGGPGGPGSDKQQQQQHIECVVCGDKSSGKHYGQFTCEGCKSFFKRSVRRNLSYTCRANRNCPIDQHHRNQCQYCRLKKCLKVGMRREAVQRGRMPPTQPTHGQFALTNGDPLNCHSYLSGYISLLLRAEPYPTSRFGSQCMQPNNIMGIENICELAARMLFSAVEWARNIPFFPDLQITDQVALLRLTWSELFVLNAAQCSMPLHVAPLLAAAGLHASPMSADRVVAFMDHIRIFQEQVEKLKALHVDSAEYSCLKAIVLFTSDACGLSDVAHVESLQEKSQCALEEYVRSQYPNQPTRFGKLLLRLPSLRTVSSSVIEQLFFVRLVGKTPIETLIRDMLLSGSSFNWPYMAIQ

[19] = target: Peroxisome proliferator-activated receptor gamma/Nuclear receptor coactivator 1 (Homo sapiens, UniProt P37231); format: functional;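 note: agonist potency as compounds enhance coactivator SRC-1 recruitment to PPARgamma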
Sequence of Peroxisome proliferator-activated receptor gamma/Nuclear receptor coactivator 1 (P37231 whole entry): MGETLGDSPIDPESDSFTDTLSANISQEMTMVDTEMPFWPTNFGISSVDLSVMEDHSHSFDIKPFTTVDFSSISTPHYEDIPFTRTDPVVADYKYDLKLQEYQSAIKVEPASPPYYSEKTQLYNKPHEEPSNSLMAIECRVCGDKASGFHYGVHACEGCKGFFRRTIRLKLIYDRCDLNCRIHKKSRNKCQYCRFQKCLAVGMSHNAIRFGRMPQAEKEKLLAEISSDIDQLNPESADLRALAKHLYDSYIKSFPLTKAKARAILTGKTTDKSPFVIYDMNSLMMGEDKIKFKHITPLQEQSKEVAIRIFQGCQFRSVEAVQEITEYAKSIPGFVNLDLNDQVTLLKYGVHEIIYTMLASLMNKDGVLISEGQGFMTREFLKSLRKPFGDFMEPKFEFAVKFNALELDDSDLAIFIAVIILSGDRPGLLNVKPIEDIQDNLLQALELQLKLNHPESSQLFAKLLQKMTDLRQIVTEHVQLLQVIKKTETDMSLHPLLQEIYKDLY
Sequence of Peroxisome proliferator-activated receptor gamma/Nuclear receptor coactivator 1 (Q15788 whole entry, further chain): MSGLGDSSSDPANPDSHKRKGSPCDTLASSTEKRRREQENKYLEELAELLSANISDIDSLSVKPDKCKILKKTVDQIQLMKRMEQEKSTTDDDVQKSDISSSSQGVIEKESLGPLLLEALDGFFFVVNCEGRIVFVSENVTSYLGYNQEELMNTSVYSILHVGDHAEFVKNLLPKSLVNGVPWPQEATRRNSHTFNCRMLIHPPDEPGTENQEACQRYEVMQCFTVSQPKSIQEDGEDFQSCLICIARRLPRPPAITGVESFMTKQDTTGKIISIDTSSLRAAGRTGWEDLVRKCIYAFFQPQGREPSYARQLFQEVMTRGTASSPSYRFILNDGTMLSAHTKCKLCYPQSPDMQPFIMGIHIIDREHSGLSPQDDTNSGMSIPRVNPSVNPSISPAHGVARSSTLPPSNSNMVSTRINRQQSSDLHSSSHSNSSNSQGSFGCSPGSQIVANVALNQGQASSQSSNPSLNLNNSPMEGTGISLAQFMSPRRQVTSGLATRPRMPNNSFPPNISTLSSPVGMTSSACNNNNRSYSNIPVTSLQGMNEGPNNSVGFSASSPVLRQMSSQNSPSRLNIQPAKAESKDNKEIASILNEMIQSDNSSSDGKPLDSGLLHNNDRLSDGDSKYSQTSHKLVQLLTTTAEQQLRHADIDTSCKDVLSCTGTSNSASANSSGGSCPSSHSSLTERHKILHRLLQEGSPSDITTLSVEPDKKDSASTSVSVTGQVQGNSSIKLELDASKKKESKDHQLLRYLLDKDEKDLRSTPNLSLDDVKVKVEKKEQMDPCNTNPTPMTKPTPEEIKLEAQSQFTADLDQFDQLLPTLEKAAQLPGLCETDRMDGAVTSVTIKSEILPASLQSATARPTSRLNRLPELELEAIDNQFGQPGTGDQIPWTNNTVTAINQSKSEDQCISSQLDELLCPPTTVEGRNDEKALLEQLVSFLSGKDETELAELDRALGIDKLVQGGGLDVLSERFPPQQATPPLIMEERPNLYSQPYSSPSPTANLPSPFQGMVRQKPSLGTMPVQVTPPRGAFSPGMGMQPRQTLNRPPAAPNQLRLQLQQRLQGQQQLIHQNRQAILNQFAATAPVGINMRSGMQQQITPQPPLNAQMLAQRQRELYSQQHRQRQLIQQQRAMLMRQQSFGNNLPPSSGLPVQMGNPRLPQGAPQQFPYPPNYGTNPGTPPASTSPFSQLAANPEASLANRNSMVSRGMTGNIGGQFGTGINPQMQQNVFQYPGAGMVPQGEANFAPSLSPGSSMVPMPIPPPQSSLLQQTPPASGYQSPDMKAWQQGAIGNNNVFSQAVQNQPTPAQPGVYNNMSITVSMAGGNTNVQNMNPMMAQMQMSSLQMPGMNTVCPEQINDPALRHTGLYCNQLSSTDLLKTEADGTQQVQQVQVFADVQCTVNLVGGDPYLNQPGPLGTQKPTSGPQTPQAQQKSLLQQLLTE

[20] = target: Peroxisome proliferator-activated receptor gamma/Nuclear receptor coactivator 3 (Homo sapiens, UniProt P37231); format: functional;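 note: agonist potency for raising coactivator recruitment to the receptor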
[21] = target: Peroxisome proliferator-activated receptor gamma/Nuclear receptor coactivator 2 (Homo sapiens, UniProt P37231); format: functional;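 note: agonist potency for raising coactivator recruitment to the receptor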
Sequence of Peroxisome proliferator-activated receptor gamma/Nuclear receptor coactivator 2 (P37231 whole entry): as the sequence (P37231 whole entry) above
Sequence of Peroxisome proliferator-activated receptor gamma/Nuclear receptor coactivator 2 (Q15596 whole entry, further chain): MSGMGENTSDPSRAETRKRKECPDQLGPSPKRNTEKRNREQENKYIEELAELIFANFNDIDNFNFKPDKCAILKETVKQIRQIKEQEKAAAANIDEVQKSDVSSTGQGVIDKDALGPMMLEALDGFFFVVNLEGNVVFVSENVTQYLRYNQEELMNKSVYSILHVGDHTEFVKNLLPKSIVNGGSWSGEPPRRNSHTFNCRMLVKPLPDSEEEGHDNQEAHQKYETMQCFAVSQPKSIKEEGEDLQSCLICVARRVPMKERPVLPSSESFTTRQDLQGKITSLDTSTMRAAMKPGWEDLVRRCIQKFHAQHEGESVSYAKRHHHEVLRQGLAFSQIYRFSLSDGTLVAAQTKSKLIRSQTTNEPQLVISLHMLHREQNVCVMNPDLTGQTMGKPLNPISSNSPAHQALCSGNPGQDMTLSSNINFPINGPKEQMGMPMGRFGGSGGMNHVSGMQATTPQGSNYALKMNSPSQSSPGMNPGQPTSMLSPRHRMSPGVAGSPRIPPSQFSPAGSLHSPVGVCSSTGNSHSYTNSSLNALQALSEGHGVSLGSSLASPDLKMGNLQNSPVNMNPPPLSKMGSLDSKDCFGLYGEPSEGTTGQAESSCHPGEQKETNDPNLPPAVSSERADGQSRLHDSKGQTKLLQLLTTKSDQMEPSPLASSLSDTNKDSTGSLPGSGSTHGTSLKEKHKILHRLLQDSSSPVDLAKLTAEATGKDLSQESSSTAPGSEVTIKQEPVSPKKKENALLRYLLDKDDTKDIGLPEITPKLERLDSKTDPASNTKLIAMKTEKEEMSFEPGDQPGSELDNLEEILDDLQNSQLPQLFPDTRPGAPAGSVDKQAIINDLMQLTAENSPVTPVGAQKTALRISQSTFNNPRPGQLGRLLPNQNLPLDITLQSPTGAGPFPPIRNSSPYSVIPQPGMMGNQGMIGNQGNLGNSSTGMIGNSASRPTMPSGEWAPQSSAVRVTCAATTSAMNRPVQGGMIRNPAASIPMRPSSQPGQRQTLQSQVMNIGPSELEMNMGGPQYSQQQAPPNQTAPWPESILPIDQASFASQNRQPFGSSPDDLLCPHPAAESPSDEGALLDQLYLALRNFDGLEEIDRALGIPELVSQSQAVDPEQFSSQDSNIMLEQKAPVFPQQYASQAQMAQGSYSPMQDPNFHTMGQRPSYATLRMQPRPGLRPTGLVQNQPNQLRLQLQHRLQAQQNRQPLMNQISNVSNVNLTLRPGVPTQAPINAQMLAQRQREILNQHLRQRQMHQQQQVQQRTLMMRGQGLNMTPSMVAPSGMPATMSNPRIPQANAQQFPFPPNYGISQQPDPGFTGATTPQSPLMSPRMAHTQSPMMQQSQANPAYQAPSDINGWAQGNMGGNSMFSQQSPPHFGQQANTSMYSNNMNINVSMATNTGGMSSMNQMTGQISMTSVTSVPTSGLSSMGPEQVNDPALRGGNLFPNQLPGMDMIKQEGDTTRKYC

[22] = Counterscreen for IDE inhibitors: Luminescence-based cell-based high throughput dose response assay to identify compounds that are cytotoxic to HEK cells. [Related pubchem assays: 434962 (Primary screen (IDE inhibitors in singlicate)), 449730 (Counterscreen (Cytotoxicity in triplicate)), 435028 (Confirmation (IDE inhibitors in triplicate)) …; format: functional; details: HEK293
[23] = target: T6, Insulin-degrading enzyme (Homo sapiens, UniProt P14735); assay: Dose Response: Fluorescence polarization-based cell-based high throughput dose response assay for inhibitors of insulin-degrading enzyme (IDE). [Related pubchem assays: 434962 (Primary screen (IDE inhibitors in singlicate)), 449730 (Counterscreen (Cytotoxicity in triplicate)), 435028 (Confirmation (IDE inhibitors in triplicate)), 434984 (Summary …; format: functional
T6 sequence (P14735 whole entry): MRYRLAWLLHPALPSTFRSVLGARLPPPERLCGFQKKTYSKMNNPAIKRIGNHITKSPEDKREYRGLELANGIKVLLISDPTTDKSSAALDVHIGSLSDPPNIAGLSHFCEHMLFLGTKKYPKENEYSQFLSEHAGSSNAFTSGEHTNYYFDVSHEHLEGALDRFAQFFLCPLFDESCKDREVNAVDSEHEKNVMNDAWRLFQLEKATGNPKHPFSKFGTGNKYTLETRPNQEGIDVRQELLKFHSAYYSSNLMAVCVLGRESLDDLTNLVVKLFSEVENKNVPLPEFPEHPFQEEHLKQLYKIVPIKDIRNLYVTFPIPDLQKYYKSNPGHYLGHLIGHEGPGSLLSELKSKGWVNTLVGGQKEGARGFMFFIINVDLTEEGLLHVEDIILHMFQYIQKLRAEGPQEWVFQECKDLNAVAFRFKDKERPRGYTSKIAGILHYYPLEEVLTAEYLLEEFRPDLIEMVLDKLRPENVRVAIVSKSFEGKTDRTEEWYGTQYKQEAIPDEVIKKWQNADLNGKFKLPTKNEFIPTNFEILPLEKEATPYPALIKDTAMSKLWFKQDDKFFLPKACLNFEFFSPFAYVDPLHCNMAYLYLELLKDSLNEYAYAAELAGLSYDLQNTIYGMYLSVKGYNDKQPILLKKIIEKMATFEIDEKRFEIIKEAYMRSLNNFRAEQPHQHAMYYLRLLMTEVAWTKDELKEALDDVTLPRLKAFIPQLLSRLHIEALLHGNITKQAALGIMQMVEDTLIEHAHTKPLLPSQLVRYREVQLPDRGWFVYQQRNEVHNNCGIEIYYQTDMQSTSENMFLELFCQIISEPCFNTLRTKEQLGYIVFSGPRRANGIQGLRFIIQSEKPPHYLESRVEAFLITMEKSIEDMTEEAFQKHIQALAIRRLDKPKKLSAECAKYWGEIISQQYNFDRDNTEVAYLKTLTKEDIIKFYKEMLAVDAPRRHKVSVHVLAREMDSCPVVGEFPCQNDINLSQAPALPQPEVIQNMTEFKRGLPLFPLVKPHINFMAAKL

[24] = Luminescence-based counterscreen assay for KLF5 inhibitors: dose response cell-based high throughput screening assay to identify cytotoxic compounds using the IEC-6 intestinal epithelial cell line. [Related pubchem assays: 1700 (Primary screen.), 1834 (Confirmation screen.), 1858 (Summary AID.), 1905 (Counterscreen.)]; format: functional
[25] = target: Luciferin 4-monooxygenase (Photinus pyralis, UniProt P08659); assay: Counter Screen for Luciferase-based Assay Positives. [Related pubchem assays: 620, 618, 411 ]
Sequence of Luciferin 4-monooxygenase (P08659 whole entry): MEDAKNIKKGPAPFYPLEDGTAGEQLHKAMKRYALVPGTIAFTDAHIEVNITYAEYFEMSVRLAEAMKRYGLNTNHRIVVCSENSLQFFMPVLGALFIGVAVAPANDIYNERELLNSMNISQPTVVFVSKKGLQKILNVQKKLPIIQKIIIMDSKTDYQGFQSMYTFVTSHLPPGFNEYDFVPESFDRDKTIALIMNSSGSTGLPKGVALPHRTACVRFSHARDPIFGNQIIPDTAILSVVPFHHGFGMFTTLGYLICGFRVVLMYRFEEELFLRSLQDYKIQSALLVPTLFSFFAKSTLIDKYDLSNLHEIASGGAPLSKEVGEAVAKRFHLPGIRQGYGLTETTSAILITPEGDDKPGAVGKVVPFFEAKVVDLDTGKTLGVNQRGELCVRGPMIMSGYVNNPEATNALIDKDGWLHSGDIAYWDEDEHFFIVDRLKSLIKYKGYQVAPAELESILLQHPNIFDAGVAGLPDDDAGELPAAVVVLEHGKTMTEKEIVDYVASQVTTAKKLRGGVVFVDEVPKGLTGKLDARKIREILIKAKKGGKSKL

[26] = system: HT-1080; assay: cytotoxicity in HT1080 fibrosarcoma cells, cell-based, fluorescence readout (AID 620); format: functional; details: Homo sapiens
[27] = target: T7, Mucolipin-3 (Homo sapiens, UniProt Q8TDD5); assay: Fluorescence counterscreen assay for […] agonists: dose response cell-based high-throughput screening assay to identify agonists of the transient receptor potential channel ML3 (TRPML3). [Related pubchem assays: 1424, 1448 ]; format: functional
T7 sequence (Q8TDD5 whole entry): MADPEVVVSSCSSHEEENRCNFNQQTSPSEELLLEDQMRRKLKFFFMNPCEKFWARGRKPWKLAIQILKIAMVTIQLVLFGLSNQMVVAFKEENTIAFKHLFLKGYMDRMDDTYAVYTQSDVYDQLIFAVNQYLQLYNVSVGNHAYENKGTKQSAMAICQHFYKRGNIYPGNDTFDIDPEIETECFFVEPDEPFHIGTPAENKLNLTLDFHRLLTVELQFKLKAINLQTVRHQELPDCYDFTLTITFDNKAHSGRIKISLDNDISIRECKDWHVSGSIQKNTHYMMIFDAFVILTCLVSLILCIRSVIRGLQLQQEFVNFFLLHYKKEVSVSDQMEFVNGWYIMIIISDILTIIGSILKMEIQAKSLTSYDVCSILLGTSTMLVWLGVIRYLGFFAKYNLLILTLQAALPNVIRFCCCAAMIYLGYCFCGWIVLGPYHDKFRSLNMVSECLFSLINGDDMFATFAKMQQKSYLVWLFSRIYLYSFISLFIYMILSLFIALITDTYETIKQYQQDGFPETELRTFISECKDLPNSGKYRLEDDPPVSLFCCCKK

[28] = target: Ion channel NompC (Danio rerio, UniProt Q7T1G6); assay: Dose response cell-based high-throughput screening assay for agonists of the transient receptor potential channel N1 (TRPN1). [Related pubchem assays (depositor defined):AID1424, AID1448]; format: functional
[29] = enhancers of respiration in Yfh1-depleted yeast, dose response, Friedreich's ataxia, plus single-dose screen (AID 1465); format: functional;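 note: yeast depleted of Yfh1p frataxin homolog grown on glycerol needing respiration; WST-1 tetrazolium dye reduction as measure of cellular dehydrogenase metabolic activity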
[30] = target: Troponin, cardiac muscle (Homo sapiens, UniProt P19429+P45379+P63316); assay: Fluorescence-based biochemical high throughput dose response assay for activators of the calcium sensitivity of cardiac Regulated Thin Filaments (RTF). [Related pubchem assays (depositor defined):AID493008, AID493018, AID504382, AID504383]; format: protein-complex assay

Oc1cccc(/C=N/c2c(-c3ccco3)nc3ccccn23)c1
CC50 [1]: > 40 µM (active) | CC50 [2]: > 40 µM (active) | EC50 [3]: 9.07 µM (active) | EC50 [4]: > 350 µM (not active) | IC50 [5]: > 66.8 µM (active) | IC50 [6]: 53.3 µM (inconclusive) | EC50 [7]: 66.5 µM (active)

COC(=O)c1cc(Cl)c(NC(=O)c2ccc(C(C)(C)C)cc2)cc1OC
IC50 [8]: 5.31 µM (active) | IC50 [9]: 4.32 µM (active)

COc1ccccc1-n1c(-c2ccccc2)c[n+]2c1CCc1ccccc1-2
IC50 [10]: 8.77 µM (active) | EC50 [11]: > 29.9 µM (inactive) | IC50 [12]: 11.6 µM (not active) | AC50 ([13]; Rattus norvegicus, INS1): 2.31 µM (active) | AC50 ([13]; ins1): 3.62 µM (active) | IC50 [14]: 0.266 µM (active) | IC50 [15]: > 1.11 µM (active) | IC50 [16]: 0.548 µM (active) | IC50 [17]: 6.31 µM (active) | IC50 [18]: 6.73 µM (active)

CC(C)(C)c1ccc(OCc2ccc(C(=O)N3CCOCC3)o2)cc1
EC50 [19]: > 79.4 µM (not active) | EC50 [20]: > 79.4 µM (not active) | EC50 [21]: > 79.4 µM (not active)

Cc1ccc(/C=N\NC(=O)/C(=C\Nc2nccc(C)n2)NC(=O)c2ccccc2)cc1
IC50 [22]: > 55.7 µM (not active) | IC50 [23]: 5.43 µM (active)

O=C(Nc1nccs1)c1cc2c(s1)CCCCC2
IC50 [24]: 33.2 µM (not active) | EC50 [25]: 8.26 µM (active) | EC50 [26]: > 50 µM (not active)

CN1CCS/C1=C/C=C1\SC(=S)N(CC(=O)O)C1=O
EC50 [27]: 12.2 µM (not active) | EC50 [28]: 5.92 µM (active) | EC50 [29]: > 100 µM (active) | EC50 [30]: 0.87 µM (active)
